The supplement of paper PMC8617591

Legend:
[1] = test system: Mycobacterium tuberculosis Erdman (autoluminescent); experiment: total FIC50 (Loewe) at 50% inhibition, three-drug combination (log2); higher = more antagonistic
Method: (§1)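 DiaMOND equipotent three-drug combination dose responses (10 doses, 1.5- or 2-fold spacing, centred on IC90) against autoluminescent M. tuberculosis Erdman in 8 in vitro models. Read-out is OD600, or luminescence for the intracellular and dormancy models, normalised to untreated wells. Hill-fit Einf, AUC25 and GRinf are potency metrics; FIC50 and FIC90 are total Loewe fractional inhibitory concentrations as log2 (negative = synergy).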

[2] = test system: Mycobacterium tuberculosis Erdman (autoluminescent); experiment: total FIC90 (Loewe) at 90% inhibition, three-drug combination (log2); higher = more antagonistic
Method: as §1

[3] = test system: Mycobacterium tuberculosis Erdman (autoluminescent); experiment: AUC25, normalised area under dose response up to IC25 (three-drug combination) (fraction (0-1)); higher = more potent at low dose
Method: as §1

[4] = test system: Mycobacterium tuberculosis Erdman (autoluminescent); experiment: Einf, fitted maximum growth inhibition of three-drug combination (fraction); higher = stronger maximal inhibition
Method: as §1

[5] = test system: Mycobacterium tuberculosis Erdman (autoluminescent); experiment: GRinf, maximum normalised growth rate inhibition (three-drug combination) (unitless (-1 to 1)); higher = less effect (negative = killing)
Method: as §1

[6] = in vitro model: acidic pH 5.7, time point: constant (~7 days, model-specific)
[7] = in vitro model: acidic pH 5.7, time point: terminal (~4-5 doublings, model-specific)
[8] = in vitro model: butyrate, time point: constant (~7 days, model-specific)
[9] = in vitro model: butyrate, time point: terminal (~4-5 doublings, model-specific)
[10] = in vitro model: cholesterol 0.05 mM, time point: constant (~7 days, model-specific)
[11] = in vitro model: cholesterol 0.05 mM, time point: terminal (~4-5 doublings, model-specific)
[12] = in vitro model: cholesterol-high 0.2 mM, time point: constant (~7 days, model-specific)
[13] = in vitro model: cholesterol-high 0.2 mM, time point: terminal (~4-5 doublings, model-specific)
[14] = in vitro model: dormancy (butyrate + nitrate, low O2), time point: constant (~7 days, model-specific)
[15] = in vitro model: dormancy (butyrate + nitrate, low O2), time point: terminal (~4-5 doublings, model-specific)
[16] = in vitro model: standard 7H9 glycerol, time point: constant = terminal
[17] = in vitro model: valerate, time point: constant (~7 days, model-specific)
[18] = in vitro model: valerate, time point: terminal (~4-5 doublings, model-specific)
[19] = in vitro model: intracellular J774, time point: constant = terminal

`CC[C@@H](CO)NCCN[C@@H](CC)CO` [ethambutol] + CC(=O)NC[C@H]1CN(c2ccc(N3CCOCC3)c(F)c2)C(=O)O1 [linezolid] + COc1c(N2C[C@@H]3CCCN[C@@H]3C2)c(F)cc2c(=O)c(C(=O)O)cn(C3CC3)c12 [moxifloxacin] was tested, and the “total FIC50” value [1, 6] was 0.0272, the “total FIC50” value [1, 7] was 1.25 and the “total FIC50” value [1, 8] was 0.436. For the same compound, the “total FIC50” value [1, 9] was 0.501, the “total FIC50” value [1, 10] was -0.0271 and the “total FIC50” value [1, 11] was 7.63. For the same compound, the “total FIC50” value [1, 12] was 0.596, the “total FIC50” value [1, 13] was 0.421 and the “total FIC50” value [1, 14] was 0.25. For the same compound, the “total FIC50” value [1, 15] was -0.563, the “total FIC50” value [1, 16] was 0.808 and the “total FIC50” value [1, 17] was 0.39. For the same compound, the “total FIC50” value [1, 18] was 0.654, the “total FIC90” value [2, 7] was 0.487 and the “total FIC90” value [2, 9] was 0.397. The “total FIC90” value [2, 13] was 1, the “total FIC90” value [2, 15] was 0.576 and the “total FIC90” value [2, 19] was -0.395. The “total FIC90” value [2, 16] was 0.685, the “total FIC90” value [2, 18] was 0.845 and the AUC25 [3, 6] was 0.121. The AUC25 [3, 7] was 0.101, the AUC25 [3, 8] was 0.0929 and the AUC25 [3, 9] was 0.0678. It also gave an AUC25 [3, 10] of 0.149, an AUC25 [3, 11] of 0.162 and an AUC25 [3, 12] of 0.111. The AUC25 [3, 13] was 0.109, the AUC25 [3, 14] was 0.0953 and the AUC25 [3, 15] was 0.0816. The AUC25 [3, 16] was 0.0554, the AUC25 [3, 17] was 0.0828 and the AUC25 [3, 18] was 0.0583. For the same compound, the Einf [4, 6] was 0.782, the Einf [4, 7] was 0.956 and the Einf [4, 8] was 0.887. The Einf [4, 9] was 0.938, the Einf [4, 10] was 0.725 and the Einf [4, 11] was 0.932. It also gave an Einf [4, 12] of 0.942, an Einf [4, 13] of 1 and an Einf [4, 14] of 0.849. It also gave an Einf [4, 15] of 0.967, an Einf [4, 19] of 0.966 and an Einf [4, 16] of 0.958. For the same compound, the Einf [4, 17] was 0.872, the Einf [4, 18] was 0.938 and the GRinf [5, 6] was -0.587. It also gave a GRinf [5, 7] of -0.36, a GRinf [5, 8] of 0.105 and a GRinf [5, 9] of 0.104. The GRinf [5, 10] was -0.165, the GRinf [5, 11] was -0.548 and the GRinf [5, 12] was -0.318. It also gave a GRinf [5, 13] of -0.97, a GRinf [5, 14] of 0.414 and a GRinf [5, 15] of -0.0859. It also gave a GRinf [5, 19] of -0.388, a GRinf [5, 16] of -0.3 and a GRinf [5, 17] of 0.0258. It also gave a GRinf [5, 18] of -0.0184.
In the case of `CC[C@@H](CO)NCCN[C@@H](CC)CO` [ethambutol] + CC(=O)NC[C@H]1CN(c2ccc(N3CCOCC3)c(F)c2)C(=O)O1 [linezolid] + NC(=O)c1cnccn1 [pyrazinamide], the “total FIC50” value [1, 6] is reported as 0.0711, the “total FIC50” value [1, 7] is reported as 1.01 and the “total FIC50” value [1, 8] is reported as 0.217. The “total FIC50” value [1, 9] was 0.189, the “total FIC50” value [1, 11] was -1.33 and the “total FIC50” value [1, 12] was 0.563. For the same compound, the “total FIC50” value [1, 13] was 0.303, the “total FIC50” value [1, 14] was 0.819 and the “total FIC50” value [1, 15] was 0.154. For the same compound, the “total FIC50” value [1, 16] was 1.2, the “total FIC50” value [1, 17] was 0.255 and the “total FIC50” value [1, 18] was 0.697. The “total FIC90” value [2, 7] was -1.27, the “total FIC90” value [2, 9] was 0.638 and the “total FIC90” value [2, 13] was 0.985. The “total FIC90” value [2, 15] was 0.627, the “total FIC90” value [2, 19] was 0.433 and the AUC25 [3, 6] was 0.087. It also gave an AUC25 [3, 7] of 0.0645, an AUC25 [3, 8] of 0.114 and an AUC25 [3, 9] of 0.0865. It also gave an AUC25 [3, 10] of 0.16, an AUC25 [3, 11] of 0.168 and an AUC25 [3, 12] of 0.101. For the same compound, the AUC25 [3, 13] was 0.11, the AUC25 [3, 14] was 0.107 and the AUC25 [3, 15] was 0.102. It also gave an AUC25 [3, 16] of 0.071, an AUC25 [3, 17] of 0.0934 and an AUC25 [3, 18] of 0.0462. The Einf [4, 6] was 0.835, the Einf [4, 7] was 0.963 and the Einf [4, 8] was 0.891. It also gave an Einf [4, 9] of 0.932, an Einf [4, 10] of 0.785 and an Einf [4, 11] of 0.977. It also gave an Einf [4, 12] of 0.944, an Einf [4, 13] of 1 and an Einf [4, 14] of 0.75. The Einf [4, 15] was 0.964, the Einf [4, 19] was 0.966 and the Einf [4, 16] was 0.86. It also gave an Einf [4, 17] of 0.864, an Einf [4, 18] of 0.909 and a GRinf [5, 6] of -0.314. It also gave a GRinf [5, 7] of -0.245, a GRinf [5, 8] of 0.0745 and a GRinf [5, 9] of 0.0716. It also gave a GRinf [5, 10] of -0.0274, a GRinf [5, 11] of -0.696 and a GRinf [5, 12] of -0.667. The GRinf [5, 13] was -0.959, the GRinf [5, 14] was 0.388 and the GRinf [5, 15] was 0.0543. It also gave a GRinf [5, 19] of -0.526, a GRinf [5, 16] of 0.221 and a GRinf [5, 17] of 0.000637. It also gave a GRinf [5, 18] of 0.102.
